Data reported in patent US20100221351A1, “Controlled Drug Delivery Using a Thermally Responsive Nanocapsule to Augment Cryoablation” (UNIVERSITY OF SOUTH CAROLINA, priority 2009, published 2010).

Assay: Release of trehalose during dialysis into 1 L water at 37° C.
Format: physicochemical
Settings: 0.3 g trehalose in 2 ml water
Procedure: FIG. 2. Release of trehalose (0.3 g) into 1 L water during dialysis under 3 conditions: free dissolved, nanoencapsulated (NE) with cooling/heating between 22 and 37° C. (NE22-37C), and nanoencapsulated kept at 37° C. (NE37C) before dialysis.
This nanocapsule has been used to physically encapsulate a small molecular weight hydrophilic trehalose (Mw=342 Da) for its intracellular delivery and controlled release. […] Clearly, the free dissolved trehalose was completely released from the dialysis bag in ˜2 hr, while trehalose release from the other two conditions with nanoencapsulation is much slower. The release for the sample kept 37° C. (i.e., NE37C) reached equilibrium at approximately 4 hours while it is approximately 3 hours for the sample with cooling and heating between 22 and 37° C. (i.e., NE22-37C). Moreover, approximately 11.3 and 4.3 mg trehalose were still retained in the NE37C and NE22-37C samples under the equilibrium state, respectively. […] In other words, a quick release of the nanoencapsulated trehalose can be achieved by thermally cycling the trehalose loaded nanocapsule between 22 and 37° C.

time to complete release of trehalose from the dialysis bag: ~2 h
SMILES: OC[C@H]1O[C@H](O[C@H]2O[C@H](CO)[C@@H](O)[C@H](O)[C@H]2O)[C@H](O)[C@@H](O)[C@@H]1O [free dissolved trehalose, trehalose]
